Here are results for eight compounds from PubChem BioAssay (NCI).

Among the test systems are SN12C renal; UACC-62 melanoma; NCI-H23 lung; ACHN renal; KM12 colon; SNB-75 CNS; DU-145 prostate; SK-MEL-2 melanoma; SF-539 CNS; A549 NSCLC.
Holding throughout (assay): NCI-60 cell line screen, 48 h

Each structure is given as a SMILES string.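 Following 48 hours of exposure in 96-well plates, responses at five concentrations were used to interpolate endpoints linearly. Abbreviation: GI50, concentration required for 50% inhibition of growth. TGI is the concentration that stops growth completely.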 A value given as a limit tells only on which side of the number the result lay.

In the case of `Cn1cc(C2=C(c3cn(CCCCO)c4ccccc34)C(=O)NC2=O)c2ccccc21`, the GI50 in the assay with SN12C renal is 7.17 µM; with UACC-62 melanoma, 9.07 µM; in the assay on NCI-H23 lung, 10.1 µM; in the assay with ACHN renal it was 6.38 µM; with KM12 colon, 7.09 µM; with SNB-75 CNS, 2.31 µM. In addition, the GI50 in the assay with DU-145 prostate is 10 µM; in the assay with SK-MEL-2 melanoma, 7.65 µM; in the assay on SF-539 CNS, 4.91 µM; in the assay with A549 NSCLC, 7.97 µM. The TGI is above 25 µM with SN12C renal; above 24.1 µM in the assay with UACC-62 melanoma; above 25 µM with NCI-H23 lung; above 23.4 µM in the assay with ACHN renal; above 23 µM in the assay on KM12 colon; above 25 µM in the assay on SNB-75 CNS. In addition, the TGI in the assay on DU-145 prostate is above 25 µM; with SK-MEL-2 melanoma it was 21.6 µM; with SF-539 CNS, 16.7 µM; in the assay with A549 NSCLC, above 25 µM.
Take `CC(=O)OC12C=CC(=O)N1c1ccccc1C(=O)O2` (centres undefined): the TGI in the assay on SN12C renal, in the assay with UACC-62 melanoma, in the assay with NCI-H23 lung, in the assay on ACHN renal, with KM12 colon and in the assay with SNB-75 CNS was above 100 µM throughout. The TGI in the assay with DU-145 prostate, with SK-MEL-2 melanoma, in the assay on SF-539 CNS and with A549 NSCLC was above 100 µM throughout. The GI50 in the assay with DU-145 prostate was above 100 µM.
Regarding `O=C(N[C@@H](c1ccc(Cl)c(Cl)c1)C1CNC1)c1ccc2cnccc2c1`, the GI50 with SN12C renal is 0.715 µM; with UACC-62 melanoma, 0.171 µM; in the assay with NCI-H23 lung it was 0.336 µM; in the assay on ACHN renal it was 0.904 µM; in the assay on KM12 colon, 0.314 µM; in the assay on SNB-75 CNS, below 0.0125 µM. Also, the GI50 is 0.644 µM with DU-145 prostate, 0.52 µM in the assay on SK-MEL-2 melanoma, 0.0408 µM in the assay on SF-539 CNS and 0.417 µM in the assay with A549 NSCLC. Also, the TGI with SN12C renal amounted to 7.45 µM; with UACC-62 melanoma, 0.866 µM; in the assay on NCI-H23 lung it was 10.8 µM; with ACHN renal, 12 µM; in the assay on KM12 colon, 4.44 µM; in the assay with SNB-75 CNS, 0.264 µM. Also, the TGI in the assay on DU-145 prostate turned out to be 13.2 µM; in the assay on SK-MEL-2 melanoma it was 3.06 µM; in the assay with SF-539 CNS, 0.798 µM; in the assay on A549 NSCLC, 12.5 µM.
Consider `CC(C)Oc1ccc2cc(-c3nn(CC4CCNCC4)c4ncnc(N)c34)ccc2c1`, for which the GI50 was 11.8 µM with SN12C renal; 6.41 µM in the assay on UACC-62 melanoma; 11.3 µM with NCI-H23 lung; 10.5 µM with ACHN renal; 12.6 µM in the assay with KM12 colon; 1.09 µM with SNB-75 CNS. Also, the GI50 in the assay with DU-145 prostate is 14.9 µM; with SK-MEL-2 melanoma, 10.8 µM; in the assay on SF-539 CNS, 12.3 µM; in the assay with A549 NSCLC, 14.5 µM. In addition, the TGI in the assay with SN12C renal came to 24.8 µM; in the assay on UACC-62 melanoma it was 20.4 µM; in the assay with NCI-H23 lung, 25.8 µM; in the assay on ACHN renal, 22.2 µM; with KM12 colon, 26.4 µM; in the assay on SNB-75 CNS, 15.2 µM. Besides, the TGI in the assay with DU-145 prostate was 28.4 µM; in the assay with SK-MEL-2 melanoma, 24.4 µM; in the assay on SF-539 CNS it was 24.7 µM; in the assay on A549 NSCLC it was 28.3 µM.
With `COc1cc2c3c(n(C)c(=O)c2cc1OC)-c1cc2c(cc1/C3=C\CN)OCO2`, the GI50 in the assay on SN12C renal is 0.565 µM; in the assay with UACC-62 melanoma it was 0.0731 µM; in the assay with NCI-H23 lung, 0.249 µM; in the assay with ACHN renal it was 0.037 µM; in the assay on KM12 colon, 1.18 µM; in the assay with SNB-75 CNS it was 0.154 µM. Also, the GI50 with DU-145 prostate was 0.346 µM; in the assay with SK-MEL-2 melanoma, 24.1 µM; in the assay on SF-539 CNS it was 0.227 µM; with A549 NSCLC it was 0.273 µM. The TGI is above 100 µM with SN12C renal; 8.77 µM in the assay on NCI-H23 lung; 0.625 µM in the assay on ACHN renal; 12.1 µM in the assay with KM12 colon; 59.7 µM with SNB-75 CNS; 37.1 µM with DU-145 prostate. Besides, the TGI is above 100 µM with SK-MEL-2 melanoma and 2.81 µM in the assay with A549 NSCLC.
Consider `COc1c(OC[C@H](O)CN2CCOCC2)ccc2c3n(c(=NC(=O)c4cccnc4C)nc12)CCN3`, for which the GI50 was 1.72 µM in the assay with SN12C renal; 0.33 µM in the assay with UACC-62 melanoma; above 50 µM with NCI-H23 lung; 0.411 µM in the assay on ACHN renal; 40.7 µM with KM12 colon; 0.02 µM in the assay with SNB-75 CNS. For the same compound, the GI50 in the assay with DU-145 prostate was 6.72 µM; in the assay on SK-MEL-2 melanoma it was above 50 µM; in the assay on SF-539 CNS, 0.543 µM; with A549 NSCLC, 0.826 µM. The TGI in the assay with SN12C renal is above 50 µM; with UACC-62 melanoma it was above 50 µM; with NCI-H23 lung, above 50 µM; in the assay on ACHN renal it was above 50 µM; with KM12 colon, above 50 µM; in the assay on SNB-75 CNS it was 1.18 µM. Besides, the TGI is above 50 µM in the assay with DU-145 prostate, above 50 µM in the assay on SK-MEL-2 melanoma, 9.91 µM in the assay on SF-539 CNS and above 50 µM in the assay on A549 NSCLC.
`[Cl][Hg][c]1cc[c]([Hg][Cl])o1`: the GI50 with SN12C renal was 2.25 µM; in the assay with UACC-62 melanoma it was 3.46 µM; in the assay with NCI-H23 lung it was 7.91 µM; with ACHN renal, 1.85 µM; in the assay on KM12 colon, 10.6 µM; in the assay with SNB-75 CNS it was 3.78 µM. For the same compound, the GI50 in the assay on DU-145 prostate is 3.81 µM; in the assay on SK-MEL-2 melanoma, 2.56 µM; in the assay on SF-539 CNS, 3.08 µM; in the assay on A549 NSCLC, 21.9 µM. In addition, the TGI in the assay with SN12C renal was 12.9 µM; in the assay on UACC-62 melanoma it was 16.2 µM; in the assay with NCI-H23 lung, 92.1 µM; in the assay on ACHN renal, 3.39 µM; in the assay with KM12 colon, 24.4 µM; in the assay with SNB-75 CNS, 19.6 µM. In addition, the TGI amounted to 16.1 µM with DU-145 prostate, 11.3 µM in the assay on SK-MEL-2 melanoma, 13.8 µM with SF-539 CNS and 53.5 µM with A549 NSCLC.
For the compound `Oc1cccnc1[Se]`, the TGI with SN12C renal, with UACC-62 melanoma, with NCI-H23 lung, in the assay on ACHN renal, in the assay on KM12 colon and in the assay with SNB-75 CNS was above 100 µM in each case. In addition, the TGI in the assay on DU-145 prostate, in the assay with SK-MEL-2 melanoma, in the assay with SF-539 CNS and in the assay with A549 NSCLC was above 100 µM throughout.
